Data as given in US8314126B2, “Disubstituted phenylpiperdines/piperazines as modulators of dopamine neurotransmission” (NSAB, Filial af Neurosearch Sweden AB, Sverige, priority 2004, dated 2012).
Structures can show the parent of a compound that is named as a salt.

Test system: DOPAC (3,4-dihydroxyphenylacetic acid) in the rat striatum
Test: Increase of DOPAC in the rat striatum (in vivo neurochemistry)
Settings: Rattus norvegicus, sc, read-out: ED50 DOPAC
Description: After the behavioural activity sessions, the rats were decapitated and their brains rapidly taken out and put on an ice-cold petri-dish. The limbic forebrain, the striatum, the frontal cortex and the remaining hemispheral parts of each rat were dissected and frozen. Each brain part was subsequently analyzed with respect to its content of monoamines and their metabolites.
The monoamine transmitter substances (NA (noradrenaline), DA (dopamine), 5-HT (serotonin)) as well as their amine (NM (normethanephrine), 3-MT (3-methoxytyramine)) and acid (DOPAC (3,4-dihydroxylphenylacetic acid), 5-HIAA (5-hydroxyindoleacetic acid), HVA (homovamllic acid)) metabolites are quantified in brain tissue homogenates by HPLC separations and electrochemical detection
The analytical method is based on two chromatographic separations dedicated for amines or acids. Two chromatographic systems share a common auto injector with a 10-port valve and two sample loops for simultaneous injection on the two systems. Both systems are equipped with a reverse phase column (Luna C18(2), dp 3 μM, 50*2 mm i.d., Phenomenex) and electrochemical detection is accomplished at two potentials on glassy carbon electrodes (MF-1000, Bioanalytical Systems, Inc.). The column effluent is passed via a T-connection to the detection cell or to a waste outlet. This is accomplished by two solenoid valves, which block either the waste or detector outlet. By preventing the chromatographic front from reaching the detector, better detection conditions are achieved. […] Detection potentials relative to Ag/AgCl reference are 0.45 and 0.60V. […] Detection potentials relative to Ag/AgCl reference are 0.45 and 0.65V.
ED50 values for the increase of DOPAC in striatum are calculated by curve fitting.

| Compound | ED50 |
| --- | --- |
| CCCN1CCC(c2cccc(C(F)(F)F)c2)CC1 [reference compound] | 84 µmol/kg |

Same assay, conditions: sc; increase of DOPAC in rat striatum after systemic administration (s.c.); maximal effects limited to 350-400% of control; range covers 95% of fits; read-out: ED50 DOPAC

| Compound | ED50 |
| --- | --- |
| CCN1CCC(c2cccc(C(=O)C(F)(F)F)c2F)CC1 | 12 µmol/kg |
| CCN1CCC(c2cccc(S(C)(=O)=O)c2F)CC1 [drawing 10] | 68 µmol/kg |
| COCCN1CCC(c2cccc(S(C)(=O)=O)c2F)CC1 [drawing 12] | 84 µmol/kg |
| COCCN1CCC(c2cccc(S(C)(=O)=O)c2)CC1 [reference compound] | 208 µmol/kg |

Test system: not given
Test: not given
Settings: not given

| melting point | Compound |
| --- | --- |
| 199 to 202 °C | CCN1CCC(c2cccc(C(C)=O)c2F)CC1 |
| 151 to 152 °C | CCN1CCC(c2cccc(S(=O)(=O)N(C)C)c2F)CC1 (as salt: fumaric acid salt) |
| 109 to 110 °C | CCN1CCC(c2cccc(C(=O)C(F)(F)F)c2F)CC1 (as salt: fumaric acid salt) |
| 234 to 236 °C | CCCN1CCN(c2cccc(C#N)c2C(F)(F)F)CC1 (as salt: hydrochloric acid salt) |
| 241 to 243 °C | CCCN1CCN(c2cccc(S(C)(=O)=O)c2F)CC1 (as salt: hydrochloric acid salt) |
| 189 to 191 °C | CCN1CCC(c2cccc(S(=O)(=O)C(F)(F)F)c2F)CC1 (as salt: hydrochloric acid salt) |
| 214 to 216 °C | CCN1CCN(c2cccc(S(C)(=O)=O)c2F)CC1 (as salt: hydrochloric acid salt) |
| 255 to 257 °C | CCCN1CCC(c2cccc(S(C)(=O)=O)c2F)CC1 (as salt: hydrochloric acid salt) [Example 1, 4-[2-FLUORO-3-(METHYLSULFONYL)PHENYL]-1-PROPYLPIPERIDINE] |
| 250 to 252 °C | CCCN1CCC(c2cccc(S(C)(=O)=O)c2Cl)CC1 (as salt: hydrochloric acid salt) [Example 3, 4-[2-CHLORO-3-(METHYLSULFONYL)PHENYL]-1-PROPYLPIPERIDINE] |
| 233 to 235 °C | CCCN1CCC(c2cccc(S(C)(=O)=O)c2C)CC1 (as salt: hydrochloric acid salt) [Example 4, 4-[2-METHYL-3-(METHYLSULFONYL)PHENYL]-1-PROPYLPIPERIDINE] |
| 232 to 233 °C | CCCN1CCC(c2cccc(S(C)(=O)=O)c2N)CC1 (as salt: hydrochloric acid salt) [Example 6, 2-(METHYLSULFONYL)-6-(1-PROPYLPIPERIDIN-4-YL)ANILINE] |
| 272 to 274 °C | CCCN1CCC(c2cccc(C(F)(F)F)c2C#N)CC1 (as salt: hydrochloric acid salt) [Example 7, 2-(1-PROPYLPIPERIDIN-4-YL)-6-(TRIFLUOROMETHYL)BENZONITRILE] |
| 235.5 °C | CCCN1CCC(c2cccc(C(F)(F)F)c2OC)CC1 (as salt: hydrochloric acid salt) [Example 8, 4-[2-METHOXY-3-(TRIFLUOROMETHYL)PHENYL]-1-PROPYLPIPERIDINE] |
| 180 to 181 °C | CCCN1CCN(c2cccc(C(F)(F)F)c2F)CC1 (as salt: hydrochloric acid salt) [Example 9, 1-[2-FLUORO-3-(TRIFLUOROMETHYL)PHENYL]-4-PROPYLPIPERAZINE] |
| 170 to 171 °C | COCCN1CCN(c2cccc(C(F)(F)F)c2F)CC1 (as salt: hydrochloric acid salt) [Example 10, 1-[2-FLUORO-3-(TRIFLUOROMETHYL)PHENYL]-4-(2-METHOXYETHYL)PIPERAZINE] |
| 220 to 221 °C | CCCN1CCN(c2cccc(Cl)c2Cl)CC1 (as salt: hydrochloric acid salt) [Example 11, 1-(2,3-DICHLOROPHENYL)-4-PROPYLPIPERAZINE] |
| 266 to 269 °C | CCCN1CCC(c2cccc(C#N)c2C(F)(F)F)CC1 (as salt: hydrochloric acid salt) [Example 13, 3-(1-PROPYLPIPERIDIN-4-YL)-2-(TRIFLUORO-METHYL)BENZONITRILE] |
| 224 to 225 °C | CS(=O)(=O)c1cccc(C2CCN(CCC3OCCO3)CC2)c1F (as salt: hydrochloric acid salt) [Example 26, 1-[2-(1,3-DIOXOLAN-2-YL)ETHYL]-4-[2-FLUORO-3-(METHYLSULFONYL)PHENYL]-PIPERIDINE] |
| 224 to 226 °C | OCCN1CCC(c2cccc(C(F)(F)F)c2F)CC1 (as salt: hydrochloric acid salt) [Example 27, 2-{4-[2-FLUORO-3-(TRIFLUOROMETHYL)PHENYL]PIPERIDIN-1-YL}ETHANOL] |
| 218 to 220 °C | CCCN1CCC(c2cccc(C(F)(F)F)c2O)CC1 (as salt: hydrochloric acid salt) [Example 29, 2-(1-PROPYLPIPERIDIN-4-YL)-6-(TRIFLUOROMETHYL)PHENOL] |
| 203 to 205 °C | CCCN1CCC(c2cccc(OC(F)(F)F)c2O)CC1 (as salt: hydrochloric acid salt) [Example 30, 2-(1-PROPYLPIPERIDIN-4-YL)-6-(TRIFLUOROMETHOXY)PHENOL] |
| 259 to 261 °C | OCCCN1CCC(c2cccc(C(F)(F)F)c2F)CC1 (as salt: hydrochloric acid salt) [Example 32, 3-{4-[2-FLUORO-3-(TRIFLUOROMETHYL)PHENYL]PIPERIDIN-1-YL}PROPAN-1-OL] |
| 259 to 261 °C | C=CCN1CCC(c2cccc(S(C)(=O)=O)c2F)CC1 (as salt: hydrochloric acid salt) [Example 40, 1-ALLYL-4-[2-FLUORO-3-(METHYLSULFONYL)PHENYL]PIPERIDINE] |
| 180 to 181 °C | COCCN1CCC(c2cccc(C(F)(F)F)c2F)CC1 (as salt: hydrochloric acid salt) [Example 47, 4-[2-FLUORO-3-(TRIFLUOROMETHYL)PHENYL]-1-(2-METHOXYETHYL)PIPERIDINE] |
| 224 to 226 °C | C=CCN1CCC(c2cccc(C(F)(F)F)c2F)CC1 (as salt: hydrochloric acid salt) [Example 70, 1-ALLYL-4-[2-FLUORO-3-(TRIFLUOROMETHYL)PHENYL]PIPERIDINE] |
| 258 to 260 °C | CCCN1CCC(c2cccc(C(F)(F)F)c2F)CC1 (as salt: hydrochloric acid salt) [Example 71, 4-[2-FLUORO-3-(TRIFLUOROMETHYL)PHENYL]-1-PROPYLPIPERIDINE] |
| 264 to 265 °C | CCN1CCC(c2cccc(S(C)(=O)=O)c2Cl)CC1 (as salt: hydrochloride) [Example 28, 4-[2-CHLORO-3-(METHYLSULFONYL)PHENYL]-1-ETHYLPIPERIDINE] |
| 158 to 159 °C | CCN1CCC(c2cccc(OS(=O)(=O)C(F)(F)F)c2F)CC1 (as salt: methanesulfonate) [Example 34, 3-(1-ETHYLPIPERIDIN-4-YL)-2-FLUOROPHENYL TRIFLUOROMETHANESULFONATE] |

| Compound | melting point |
| --- | --- |
| CCN1CCC(c2cccc(S(C)(=O)=O)c2F)CC1 (as salt: maleic acid salt) [Example 2, 1-ETHYL-4-[2-FLUORO-3-(METHYLSULFONYL)PHENYL]-PIPERIDINE] | 112 to 113 °C |

Test system: drug-naive rats
Test: Locomotor activity in drug-naive rats
Settings: drug-naive habituated rats, 11 μmol/kg, recorded between 30 and 60 minutes, ± SEM

| Compound | Locomotor activity |
| --- | --- |
| CCN1CCC(c2cccc(S(C)(=O)=O)c2F)CC1 [drawing 36] | 2254 ± 804 counts/30 min |
| COCCN1CCC(c2cccc(S(C)(=O)=O)c2F)CC1 [drawing 38] | 1836 ± 504 (P = 0.064) counts/30 min |

Same assay, conditions: drug-naive habituated rats, 33 μmol/kg, recorded between 30 and 60 minutes, ± SEM

| Compound | Locomotor activity |
| --- | --- |
| CCN1CCC(c2cccc(S(C)(=O)=O)c2F)CC1 [drawing 36] | 2499 ± 766 (P = 0.1) counts/30 min |
| COCCN1CCC(c2cccc(S(C)(=O)=O)c2F)CC1 [drawing 38] | 1258 ± 623 counts/30 min |

Same assay, conditions: drug-naive habituated rats, 100 μmol/kg, recorded between 30 and 60 minutes, ± SEM

| Compound | Locomotor activity |
| --- | --- |
| CCN1CCC(c2cccc(S(C)(=O)=O)c2F)CC1 [drawing 36] | 2418 ± 703 (P = 0.1) counts/30 min |
| COCCN1CCC(c2cccc(S(C)(=O)=O)c2F)CC1 [drawing 38] | 1085 ± 211 counts/30 min |

Same assay, conditions: drug-naive rats, 11 μmol/kg, recorded for 60 minutes, ± SEM

| Compound | Locomotor activity |
| --- | --- |
| CCN1CCC(c2cccc(S(C)(=O)=O)c2F)CC1 [drawing 29] | 13113 ± 1795 counts/60 min |

Same assay, conditions: drug-naive rats, 33 μmol/kg, recorded for 60 minutes, ± SEM

| Compound | Locomotor activity |
| --- | --- |
| CCN1CCC(c2cccc(S(C)(=O)=O)c2F)CC1 [drawing 29] | 12744 ± 1291 counts/60 min |

Same assay, conditions: drug-naive rats, 100 μmol/kg, recorded for 60 minutes, ± SEM

| Compound | Locomotor activity |
| --- | --- |
| CCN1CCC(c2cccc(S(C)(=O)=O)c2F)CC1 [drawing 29] | 12530 ± 2577 counts/60 min |
